Test results as given in article PMC5745756, “N,N-disubstituted azines attenuate LPS-mediated neuroinflammation in microglia and neuronal apoptosis via inhibiting MAPK signaling pathways” (BMC Neuroscience, 2017).

Legend:
Format in all cases: cell-based, murine
[1] = system: iNOS; assay: Western blot of LPS-induced iNOS expression in BV-2 cells
Method: (§1) BV-2 cells were seeded in a 6-well plate at a density of 6 × 10^5 cells/well and exposed to LPS (100 ng/mL) in the presence or absence of compound 3 for required time. After treatment, cells were collected and lysed in cell lysis buffer (50 mM Tris–HCl, pH 8.0, 0.1% SDS, 150 mM NaCl, 1% NP-40, 0.02% sodium azide, 0.5% sodium deoxycholate, 100 µg/mL PMSF, and […]) for 24 h at 4 °C. The protein content was measured using a Bradford assay. Equal amounts of protein (30 µg) were separated using SDS-PAGE and transferred to a nitrocellulose membrane. […]
Fig. 2 Effect of compound 3 on LPS-induced iNOS and COX2 expression in BV-2 cells. […] Similarly, LPS activation was made for 24 h as chronic BV2 activation and the iNOS and COX-2 expression was measured (d). α-Tubulin was used as the loading control. […] After 24 h, the culture medium was subsequently collected to measure the quantity of PGE2 (e), IL-6 (f), and TNF-α (g) using ELISA analysis. […]

[2] = system: PGE2; assay: ELISA of PGE2 in LPS-activated BV-2 culture medium; settings: 5, 10 and 20 µM, LPS 24 h
Method: To measure TNF-α, IL-6, and PGE2, BV-2 cells were seeded in a 24-well plate at a density of 3 × 10^5 cells/well. The cells were treated with LPS (100 ng/mL) in the presence or absence of compound 3 for 24 h, and the media was collected and centrifuged. IL-6, TNF-α, and PGE2 produced in microglial culture supernatants […] were measured by competitive enzyme immunoassay kits (R&D systems, Minneapolis, MN, USA) in accordance with the manufacturer’s protocol.
Fig. 2 Effect of compound 3 on LPS-induced iNOS and COX2 expression in BV-2 cells. BV-2 cells were pretreated with various concentrations (5, 10, and 20 µM) of compound 3 for 30 min and activated with 100 ng/mL LPS. After 6 h, the cells were collected for analysis of iNOS and COX-2 expression using western blot analysis (a–c). Similarly, LPS activation was made for 24 h as chronic BV2 activation and the iNOS and COX-2 expression was measured (d). α-Tubulin was used as the loading control. The densitometric analysis of bands was performed as described in the methods section. After 24 h, the culture medium was subsequently collected to measure the quantity of PGE2 (e), IL-6 (f), and TNF-α (g) using ELISA analysis. […]

[3] = system: p38; assay: Western blot of LPS-induced p38 phosphorylation in BV-2 cells; settings: 5–20 µM; LPS 30 min, similar pattern at 24 h
Method: as §1, with “membrane. The membrane was blocked for 1 h with 5% skim milk in tris-buffered saline with Tween-20 (TBST) and then incubated for 12 h with primary antibodies against α-tubulin (Sigma-Aldrich Cat. no: T5168), iNOS (Bioscience Cat. no: 610333, COX-2 (Santa Cruz Cat. no: sc-1745), ERK (Cell Signaling Cat. no: 9107s), pERK (Cell Signaling Cat. no: 5013s), JNK (Cell Signaling Cat. no: 9252s), pJNK (Cell Signaling Cat. no: 4671s), p38 (Cell Signaling Cat. no: 8690s), and pP38 (Cell Signaling Cat. no: 9211s), followed by incubation for 1 h with horseradish peroxidase-conjugated secondary antibodies (Cell Signaling) at 15 °C.” for “membrane.”
Fig. 3 Effect of compound 3 on MAPK pathway in LPS-induced BV-2 cells. […] The phosphorylation of p38, JNK, and ERK was measured by western blotting (a–c). […]

[4] = system: N2a cells; assay: Neuronal cell viability (MTT) of N2a cells given conditioned media from LPS-stimulated BV-2 cells; settings: Mus musculus, MTT after 24 h, read-out: N2a cell viability, % of the only LPS treated control value
Method: N2a cells were used as a representative neuronal cell line for the examination of apoptotic neuron viability using direct treatment of compound 3 with TNF-α activation as well as conditioned media (CM) from LPS-stimulated BV-2 cells treated with compound 3 [28]. This assay was performed following the methods described in our previous study, with slight modifications. To measure neuron viability, BV-2 cells were first seeded and treated with 100 ng/mL LPS in the presence or absence of compound 3. After 24 h, the CM was collected and transferred to N2a cells for a further 24 h. The cell viability of N2a cells was measured using the MTT assay. Well differentiated neuronal cells were used for the experimental purpose as shown in Additional file 1: Fig. S1.
Fig. 4 Neuroprotection of compound 3 in LPS-activated microglia in N2a cells. BV-2 microglial cells were pretreated with 5, 10, and 20 µM compound 3 for 30 min and stimulated with 100 ng/mL of LPS for 24 h. After 24 h of LPS treatment, the conditioned media (CM) were collected and transferred to N2a cells. After 24 h, MTT assay was done in the same CM treated N2a cells (a) and FACS analysis (b–h). An annexin V/PI apoptosis kit was used to quantify the percentage of cells undergoing apoptosis and necrosis (x-axis, annexin V; y-axis, PI) by using FACS analysis. CM-LPS treatment alone induced apoptosis and necrosis in N2a cells (g, h). […]

[5] = system: BV2 cells; assay: β-amyloid induced BV2 cell cytotoxicity
Source text: Here, we have investigated whether the compound 3 has any direct protective effects on microglia and neurons against LPS and TNF-α induced direct toxicity. As the aim of this study is to check the effectiveness of compound 3 against neurodegenerative conditions, here we checked the effect of this compound to protect microglial cells against β-amyloid induced cytotoxicity as shown in Fig. 5a. […] LPS treatment was unable to induce cellular toxicity to N2a cells (Fig. 5b). […] Compound 3 mediated neuroprotection in N2a cells is due to the inhibition of proinflammatory cytokines produced by LPS activated microglia.
Fig. 5 Cytoprotection of compound 3 in β-amyloid induced BV2 cell and LPS and TNF-α induced N2a cell toxicity

COc1cc(/C=C/C=N/N=C/C=C/c2ccc(O)c(OC)c2)ccc1O [Compound 3, 4,4′-(1E,1′E,3E,3′E)-3,3′-(hydrazine-1,2-diylidene)bis(prop-1-ene-1-yl-3-ylidene)bis(2-methoxyphenol)]
Expression of iNOS ([1]; 5, 10 and 20 µM, 30 min pretreatment, LPS 100 ng/mL 6 h): significantly reduced | LPS induced iNOS activation, chronic ([1]; 24 h chronic LPS activation): dramatically rescued | LPS-activated PGE2 production [2]: reduced | LPS-induced phosphorylation of p38 [3]: significantly inhibited | viability at 10 µM ([4]; CM of BV-2 cells treated with 10 µM compound + LPS): 199% | viability at 20 µM ([4]; CM of BV-2 cells treated with 20 µM compound + LPS): 398% | Microglial cell death against β-amyloid [5]: significantly prevented
